# How the values were obtained:
# [1] = test system: large crabgrass; assay: Test C pre-/postemergence herbicide test; format: in vivo, Digitaria sanguinalis; details: preemergence
# In short: (§1)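 Emerged plants at the 1- to 4-leaf stage (2–18 cm), or freshly planted seeds, received test chemicals in a non-phytotoxic solvent mixture with surfactant. Response was visually scored against controls after 12 to 14 days in the greenhouse, on a 0 (no effect) to 100 (complete control) scale.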
# [2] = test system: ducksalad; assay: Test C flooded paddy test; format: in vivo, Heteranthera limosa
# [3] = test system: barnyardgrass; assay: Test C flooded paddy test; format: in vivo, Echinochloa crus-galli
# In short: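 Visual rating, 0 (no effect) to 100 (complete control), vs. controls at 12–14 d in greenhouse. Postemergence: 1–4-leaf plants, 2–18 cm. Paddy: flooded, barnyardgrass at 2-leaf stage.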
# [4] = test system: redroot pigweed; assay: Test A pre-/postemergence herbicide test; format: in vivo, Amaranthus retroflexus
# In short: (§2)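 Both application timings were run together: directed soil spray over freshly planted seeds in sandy loam, and runoff spray onto 2–10 cm seedlings. Evaluation after ~10 days in greenhouse used a 0–100 visual scale versus untreated controls.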
# [5] = test system: corn; assay: Test C pre-/postemergence herbicide test; format: in vivo, Zea mays; details: preemergence
# In short: as §1
# [6] = test system: velvetleaf; assay: Test C pre-/postemergence herbicide test; format: in vivo, Abutilon theophrasti; details: preemergence
# In short: as §1
# [7] = test system: barnyardgrass; assay: Test A pre-/postemergence herbicide test; format: in vivo, Echinochloa crus-galli
# In short: as §2
# [8] = test system: yellow nutsedge; assay: Test C pre-/postemergence herbicide test; format: in vivo, Cyperus esculentus; details: preemergence
# In short: as §1
# [9] = test system: cocklebur; assay: Test C pre-/postemergence herbicide test; format: in vivo, Xanthium strumarium; details: for Plant response rating, Cocklebur: preemergence
# In short: as §1
# [10] = test system: velvetleaf; assay: Test A pre-/postemergence herbicide test; format: in vivo, Abutilon theophrasti
# In short: as §2
# [11] = test system: common ragweed; assay: Test C pre-/postemergence herbicide test; format: in vivo, Ambrosia elatior; design: key to Plant response rating, Ragweed: 0 = no effect, 100 = complete control; details: preemergence
# In short: as §1
# [12] = test system: rice; assay: Test C flooded paddy test; format: in vivo, Oryza sativa
# In short: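 Plants were grown to the 1- to 4-leaf stage (2–18 cm) and then treated postemergence, or grown to the 2-leaf stage for the flooded paddy test. They were held in a greenhouse for 12 to 14 days and then scored by eye against controls, where 0 is no effect and 100 is complete control.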
# [13] = test system: eastern black nightshade; assay: Test C pre-/postemergence herbicide test; format: in vivo, Solanum ptycanthum; details: preemergence
# In short: as §1
# [14] = 125 g ai/ha, scale 0 (no effect) to 100 (complete control), visual, 12 to 14 days
# [15] = 500 g ai/ha, scale 0 to 100 (0 no effect, 100 complete control), visual, 12 to 14 days
# [16] = 62 g ai/ha, scale 0 to 100 (0 no effect, 100 complete control)
# [17] = 125 g ai/ha, scale 0 to 100 (0 no effect, 100 complete control)
# [18] = 250 g ai/ha, scale of 0 to 100, 0 is no effect, 100 is complete control
# [19] = 500 g ai/ha, visual rating after 12 to 14 days, scale 0 to 100 (0 no effect, 100 complete control)
# [20] = Postemergence, 500 g ai/ha, 0 to 100 scale, 0 no effect, 100 complete control
# [21] = Postemergence, 2000 g ai/ha, 0 to 100 scale, 0 no effect, 100 complete control
# [22] = Preemergence, 2000 g ai/ha, visual rating, 0 to 100 scale (0 no effect, 100 complete control)
# [23] = preemergence, 500 g ai/ha, visual injury, 0 to 100 scale (0 no effect, 100 complete control)
compound,measurement,setting,value
CCc1nc(C(C)(C)C)sc1C(=O)Nc1cccc(C(=O)NCC2CC2)n1 [Compound 215],"Plant response rating, Crabgrass, Large","[1]; 62 g ai/ha, scale 0 to 100",0
same,"Plant response rating, Crabgrass, Large",[1]; [14],70
same,"Plant response rating, Crabgrass, Large","[1]; 250 g ai/ha, scale 0-100",85
same,"Plant response rating, Crabgrass, Large",[1]; [15],100
same,Ducksalad plant response rating,[2]; [16],40
same,Ducksalad plant response rating,[2]; [17],40
same,Ducksalad plant response rating,[2]; [18],60
same,"Plant response rating, Ducksalad",[2]; [19],80
same,Barnyardgrass plant response rating,[3]; [16],0
same,Barnyardgrass plant response rating,[3]; [17],0
same,Barnyardgrass plant response rating,[3]; [18],40
same,"Plant response rating, Barnyardgrass",[3]; [19],50
same,Pigweed plant response rating,[4]; [20],70
same,"Plant response rating, Pigweed",[4]; [21],80
same,Pigweed plant response rating,[4]; [22],85
same,Pigweed plant response rating,[4]; [23],30
same,"Plant response rating, Corn","[5]; 62 g ai/ha, scale 0 to 100",0
same,"Plant response rating, Corn",[5]; [14],20
same,"Plant response rating, Corn","[5]; 250 g ai/ha, scale 0-100",20
same,"Plant response rating, Corn",[5]; [15],50
same,"Plant response rating, Velvetleaf","[6]; 62 g ai/ha, scale 0 to 100",0
same,"Plant response rating, Velvetleaf","[6]; 250 g ai/ha, scale 0-100",40
same,"Plant response rating, Velvetleaf",[6]; [15],100
same,Barnyardgrass plant response rating,[7]; [20],0
same,"Plant response rating, Barnyardgrass",[7]; [21],25
same,Barnyardgrass plant response rating,[7]; [22],35
same,Barnyardgrass plant response rating,[7]; [23],15
same,"Plant response rating, Nutsedge, Yellow","[8]; 62 g ai/ha, scale 0 to 100",0
same,"Plant response rating, Nutsedge, Yellow",[8]; [14],0
same,"Plant response rating, Nutsedge, Yellow","[8]; 250 g ai/ha, scale 0-100",0
same,"Plant response rating, Nutsedge, Yellow",[8]; [15],0
same,"Plant response rating, Cocklebur","[9]; 62 g ai/ha, scale 0 to 100",0
same,"Plant response rating, Cocklebur",[9]; [14],0
same,"Plant response rating, Cocklebur","[9]; 250 g ai/ha, scale 0-100",0
same,Cocklebur plant response rating,"[9]; Preemergence, 500 g ai/ha, scale 0 to 100, 0 no effect, 100 complete control",60
same,Velvetleaf plant response rating,[10]; [20],30
same,"Plant response rating, Velvetleaf",[10]; [21],30
same,Velvetleaf plant response rating,[10]; [22],30
same,Velvetleaf plant response rating,[10]; [23],15
same,"Plant response rating, Ragweed","[11]; 62 g ai/ha, scale 0 to 100",0
same,"Plant response rating, Ragweed","[11]; 250 g ai/ha, scale 0-100",100
same,"Plant response rating, Ragweed",[11]; [15],100
same,Rice plant response rating,[12]; [16],0
same,Rice plant response rating,[12]; [17],0
same,Rice plant response rating,[12]; [18],0
same,"Plant response rating, Rice",[12]; [19],20
same,"Plant response rating, Nightshade","[13]; 62 g ai/ha, scale 0 to 100",100
same,"Plant response rating, Nightshade",[13]; [14],100
same,"Plant response rating, Nightshade","[13]; 250 g ai/ha, scale 0-100",100
same,"Plant response rating, Nightshade",[13]; [15],100

# — patent US20060069132A1, “Azolecarboxamide herbicides” (priority 2004, published 2006)
